Assay results from paper PMC9532951, “Identification and characterization of a novel SNAT2 (SLC38A2) inhibitor reveals synergy with glucose transport inhibition in cancer cells” (Frontiers in Pharmacology, 2022).
“And” between values parts separate entries of the source, which are not always exact repeats. Equal values may be shown once.

Experiments:
SNAT1 and SNAT2 [1] = target: T1, SNAT1 and SNAT2 (Homo sapiens, UniProt Q96QD8); experiment: FMP assay in HCC1806 clones C10 (ASCT2ko) and D126 (ASCT2ko, SNAT2ko); assay type: cell-based; conditions: 10 mM; HCC1806 wildtype and C10 cells
T1 construct: endogenous in cells; host or cells: HCC1806 clone C10 (ASCT2ko) and clone D126 (ASCT2ko, SNAT2ko), amino acid depleted for 24 h
T1 sequence (Q96QD8 1-506): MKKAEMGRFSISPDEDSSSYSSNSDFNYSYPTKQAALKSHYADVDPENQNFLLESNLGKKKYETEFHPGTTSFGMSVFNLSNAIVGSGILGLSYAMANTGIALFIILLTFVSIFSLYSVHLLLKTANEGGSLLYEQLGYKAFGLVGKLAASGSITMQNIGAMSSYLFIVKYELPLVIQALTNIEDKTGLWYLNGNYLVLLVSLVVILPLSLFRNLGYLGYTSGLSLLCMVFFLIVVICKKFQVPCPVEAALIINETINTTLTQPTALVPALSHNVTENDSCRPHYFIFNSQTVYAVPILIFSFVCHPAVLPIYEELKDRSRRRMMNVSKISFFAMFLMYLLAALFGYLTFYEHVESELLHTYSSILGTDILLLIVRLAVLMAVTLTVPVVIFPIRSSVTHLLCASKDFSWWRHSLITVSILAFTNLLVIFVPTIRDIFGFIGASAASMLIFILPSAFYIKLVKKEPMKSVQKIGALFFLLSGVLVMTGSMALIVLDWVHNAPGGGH
Procedure: (§1) To delete the SNAT2 (SLC38A2) gene in modified HCC1806 cells (clone C10 nullizygous for ASCT2 ([Broer et al., 2019])), the GeneArt CRISPR Nuclease Vector with OFP Reporter Kit (Invitrogen; A21174) was employed and complementary 19–20 bp long single-stranded oligonucleotides with overhangs were designed to produce a guide RNA (gRNA) for the Cas9 nuclease that would target exon 7 of the SNAT2 gene. Colonies were analysed by sequencing using the U6 primer included in the GeneArt CRISPR Nuclease Vector with OFP Reporter kit. Plasmids that contained the correct CRISPR nuclease construct were then used to transfect HCC1806 cells with Lipofectamine 2000 (Invitrogen). Prior to transfection, medium was replaced with 2 ml of fresh DMEM/F-12 (supplemented with 10% heat-inactivated FBS and 2 mM glutamine). Plasmid DNA (4 µg) and 10 µL of Lipofectamine 2000 were incubated separately for 5 min at room temperature in 500 µl of Opti-MEM (Invitrogen) before being combined and incubated for a further 30 min at room temperature. The DNA-Lipofectamine complex was then added to the cells in a dropwise manner and allowed to be absorbed over 6 h at 37°C, after which the medium was renewed with fresh DMEM/F-12. Cells were checked for red fluorescence using an EVOS FL cell imaging system (Thermo Fisher Scientific) 48–72 h post transfection. Subsequently, cells were detached using 0.25% Trypsin EDTA. After harvesting and washing thrice with PBS (pH 7.4), cells were resuspended in PBS (pH 7.4) supplemented with 5 mM glucose and 1% dialysed and heat inactivated FBS and passed through a 100 μm cell strainer. The cell filtrate was then pelleted once more and resuspended in the same buffer. Cells were sorted using an ARIA II FACS machine and individually dispensed into the wells of a 96-well plate. Nullizygous clones were identified using a series of assays including the FLIPR membrane potential assay, western blotting and sequencing.
(§2) The FLIPR Membrane Potential Blue Explorer Kit (Molecular Devices) was used to characterise inhibitors and to optimise a high-throughput compound screen. Cells were seeded at approximately 60,000 cells/well on a 96-well plate and allowed to attach and grow overnight in a cell incubator. The next day, the cells were washed once with mHBSS and incubated in a starvation medium (composed of mHBSS with 1% dialysed heat-inactivated FBS, 23 mM NaHCO3, 10 U/ml penicillin and 10 μg/ml streptomycin) for 24 h. Cells were then washed once with mHBSS and incubated with 50 µl of the mHBSS-resuspended FMP assay dye and 50 µl of mHBSS (with or without inhibitors) and incubated at room temperature for 30 min. The plate was then placed in an EnSpire Multimode plate reader (PerkinElmer) and four sequential measurements of fluorescence were recorded as a baseline reference. Immediately after the baseline measurements were taken, 25 µl of 5 mM glutamine dissolved in mHBSS was injected into each well and the plate was shaken orbitally for 5 s before a series of consecutive fluorescence measurements were taken. The excitation wavelength was set to 530 nm and the emission was detected at 565 nm. The Δ fluorescent signal reported in the figures was taken 30 s after substrate addition. After the assay was complete, the liquid content of the plate was carefully removed, and the cell monolayer inspected to ensure it remained intact throughout the course of the assay.

SNAT1 and SNAT2 [2] = target: T2, SNAT1 and SNAT2 (Homo sapiens, UniProt Q9H2H9); experiment: as above; assay type: cell-based; conditions: D126 cells
T2 construct: endogenous in cells; host or cells: HCC1806 clone C10 (ASCT2ko) and clone D126 (ASCT2ko, SNAT2ko), amino acid depleted for 24 h
T2 sequence (Q9H2H9 1-487): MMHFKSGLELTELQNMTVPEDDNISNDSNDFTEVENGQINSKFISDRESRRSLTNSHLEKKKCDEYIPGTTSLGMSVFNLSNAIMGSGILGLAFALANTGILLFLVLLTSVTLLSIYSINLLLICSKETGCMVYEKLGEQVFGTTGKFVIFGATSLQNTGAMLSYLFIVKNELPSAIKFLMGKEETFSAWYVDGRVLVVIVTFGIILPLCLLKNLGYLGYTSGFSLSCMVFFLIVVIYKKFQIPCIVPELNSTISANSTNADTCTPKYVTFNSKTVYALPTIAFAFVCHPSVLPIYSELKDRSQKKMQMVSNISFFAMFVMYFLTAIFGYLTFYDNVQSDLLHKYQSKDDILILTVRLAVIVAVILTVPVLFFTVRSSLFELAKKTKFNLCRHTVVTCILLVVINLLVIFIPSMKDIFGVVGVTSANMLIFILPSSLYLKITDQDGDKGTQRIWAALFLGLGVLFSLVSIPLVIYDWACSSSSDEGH
Procedure: as §1, §2

In the case of C[N+](C)(C)CC(=O)O [Betaine, betaine], the “FMP signal as substrate” value (SNAT1 and SNAT2 [1]) is reported as “strong FMP signal”.

In the case of N[C@@H](CCC(=O)NO)C(=O)O [GHX, L-glutamic acid γ-monohydroxamate], the “block of glutamine (1 mM) FMP signal” value (SNAT1 and SNAT2 [2]) is reported as “still blocked”, the FMP fluorescence (SNAT1 and SNAT2 [2]; time 0, replicates 1-10) is reported as 22435 and 17495 and 17429 and 17955 and 18811 and 18812 and 18737 and 18055 and 17050 and 17347 and the FMP fluorescence (SNAT1 and SNAT2 [2]; time 12, replicates 1-10) is reported as 20191. The FMP fluorescence (SNAT1 and SNAT2 [2]; time 30, replicates 1-10) was 20609 and 15706 and 15219 and 15815 and 16260 and 16292 and 16468 and 15594 and 14527 and 15164, the FMP fluorescence (SNAT1 and SNAT2 [2]; time 40, replicates 1-10) was 20541 and 15480 and 15193 and 15674 and 16277 and 16260 and 16583 and 15586 and 14696 and 15217 and the FMP fluorescence (SNAT1 and SNAT2 [2]; time 50, replicates 1-10) was 20610 and 15277 and 15074 and 15756 and 16154 and 16238 and 16249 and 15554 and 14656 and 15194. The FMP fluorescence (SNAT1 and SNAT2 [2]; time 60, replicates 1-10) was 20690 and 15464 and 15031 and 15758 and 16045 and 16010 and 16126 and 15471 and 14546 and 15121, the FMP fluorescence (SNAT1 and SNAT2 [2]; time 70, replicates 1-10) was 20527 and 15130 and 14967 and 15329 and 16082 and 16096 and 16209 and 15213 and 14316 and 15085 and the FMP fluorescence (SNAT1 and SNAT2 [2]; time 80, replicates 1-10) was 20404 and 15072 and 14875 and 15595 and 16009 and 15975 and 15951 and 15190 and 14182 and 15130. For the same compound, the FMP fluorescence (SNAT1 and SNAT2 [2]; time 90, replicates 1-10) was 20524 and 15134 and 14788 and 15354 and 15654 and 15782 and 15863 and 15065 and 14296, the FMP fluorescence (SNAT1 and SNAT2 [2]; time -10, replicates 1-10) was 22909 and 17766 and 17765 and 18446 and 19408 (2×) and 19505 and 18694 and 17349 and 17632 and the FMP fluorescence (SNAT1 and SNAT2 [2]; time -20, replicates 1-10) was 23556 and 18431 and 18738 and 19301 and 20185 and 20456 and 20335 and 19156 and 18269 and 18621.
